Assay [1] relates to Bacillus subtilis. The following applies: MTCC 121.
Description: (§1) Antimicrobial activity against Bacillus subtilis MTCC 121 at 2 mg/ml after 24 hr by agar well diffusion method
The subject of assay [2] is Staphylococcus aureus. The following applies: MTCC 96.
Assay [3] concerns Escherichia coli. Description: Antimicrobial activity against Escherichia coli MTCC 1652 at 2 mg/ml after 24 hr by agar well diffusion method. It counts as functional, organism-based. (A growth-free zone around the sample is the usual read-out of agar diffusion tests.)
Assay [4] has as its system Candida albicans. As to the kind of experiment: Antimicrobial activity against Candida albicans MTCC 227 at 2 mg/ml by two-fold serial dilution method. In kind it is functional.
In assay [5] the test system is Bacillus subtilis. The following applies: MTCC 121. The source holds these as a separate data set.
Description: (§2) Antimicrobial activity against Bacillus subtilis MTCC 121 at 2 mg/ml after 24 hr by two-fold serial dilution method
Assay [6] has as its system Pseudomonas aeruginosa. Description: Antimicrobial activity against Pseudomonas aeruginosa MTCC 741 at 2 mg/ml after 24 hr by agar well diffusion method. It counts as functional, organism-based.
Assay [7] relates to Staphylococcus aureus. The following applies: MTCC 96. This is another data set of the same source.
In assay [8] the test system is Candida albicans. As to the kind of experiment: Antimicrobial activity against Candida albicans MTCC 227 at 2 mg/ml by agar well diffusion method. In kind it is functional. The following applies: read-out: DIZ.
For assay [9], the system named is Saccharomyces cerevisiae. As to the kind of experiment: Antimicrobial activity against Saccharomyces cerevisiae MTCC 170 at 2 mg/ml after 24 hr by agar well diffusion method. In kind it is functional. The following applies: MTCC 170, 24 h, read-out: DIZ.
Assay [10] relates to Saccharomyces cerevisiae. Description: Antimicrobial activity against Saccharomyces cerevisiae MTCC 170 after 24 hr by two-fold serial dilution method. It counts as functional. The following applies: MTCC 170, 24 h.
Assay [11] concerns Staphylococcus aureus. Description: Antimicrobial activity against Staphylococcus aureus MTCC 96 at 2 mg/ml after 24 hr by agar well diffusion method. It counts as functional. The following applies: MTCC 96, 24 h, read-out: DIZ.
Assay [12] has as its system Bacillus subtilis. Description: microbe, parasite or virus in culture. It counts as functional. The following applies: MTCC 121, 24 h.
Description: as §2
Assay [13] has as its system Bacillus subtilis. Description: microbe, parasite or virus in culture. In kind it is functional. The following applies: MTCC 121, 24 h, read-out: DIZ.
Description: as §1
Assay [14] concerns Staphylococcus aureus. As to the kind of experiment: Antimicrobial activity against Staphylococcus aureus MTCC 96 after 24 hr by two-fold serial dilution method. In kind it is functional. The following applies: MTCC 96, 24 h.

We go through 4 compounds from ChEMBL document CHEMBL3046925, “,-Dibromoacetophenones mediated synthesis of some new 7H-7-alkoxy-3-alkyl/phenyl-6-aryl-s-triazolo[3,4-b][1,3,4]thiadiazines and their antimicrobial evaluation” (2012).

Converted amounts (≈) assume the structure as drawn. The source made the active and inactive calls. The calls are words filed in the database; no cut-off is given here.

In the case of `CCOC1Sc2nnc(CC)n2N=C1c1ccc(Cl)cc1` (stereo not given), the DIZ entry in [1] and in assay [2] was “inactive” throughout. The outcome in assay [3] and in [6] was inactive. Also, the MIC was 64 µg/mL (≈ 198 µM) in [4] and 32 µg/mL (≈ 99.1 µM) in assay [10]. In addition, the MIC entry in assay [5] and in assay [7] was “inactive” throughout. The zone of inhibition at 2000 µg/mL was determined as 15.6 mm in assay [8] and 18.3 mm in assay [9].

With `CCOC1Sc2nnc(CC)n2N=C1c1ccc([N+](=O)[O-])cc1` (stereo not given), the DIZ result in assay [1] and in [2] was “inactive” throughout. Further, the outcome in assay [3] and in assay [6] was inactive. The values for the MIC in assay [4] and in assay [10] were 128 µg/mL (≈ 384 µM) and 64 µg/mL (≈ 192 µM), respectively. Also, the MIC result in assay [5] and in assay [7] was “inactive” each time. Moreover, the zone of inhibition at 2000 µg/mL in assay [8] was 13.3 mm; in assay [9] it was 15.6 mm.

With `CCOC1Sc2nnc(CC)n2N=C1c1ccc(F)cc1` (stereo not given), the DIZ entry in [1] and in assay [2] was “inactive” throughout. Moreover, the result in assay [3] and in assay [6] was inactive. The MIC in assay [4] and in assay [10] was 128 µg/mL (≈ 418 µM) in each case. Further, the MIC result in [5] and in assay [7] was “inactive” in each case. Further, the zone of inhibition at 2000 µg/mL in assay [8] was 13 mm; in assay [9], 13.6 mm.

Regarding `CCOC1Sc2nncn2N=C1c1ccccc1` (stereo not given), the zone of inhibition at 2000 µg/mL in assay [11] was 16.3 mm; in assay [13], 20.3 mm; in [8], 13.6 mm; in assay [9], 13.6 mm. The values for the MIC in assay [12], in assay [14] and in assay [10] were 64 µg/mL (≈ 246 µM), 128 µg/mL (≈ 492 µM) and 128 µg/mL (≈ 492 µM), respectively. In addition, the result in assay [3] and in assay [6] was inactive. In [4], the MIC entry was “inactive”.
